Results published in patent US11524968B2, “Heterocyclic compound as a protein kinase inhibitor” (HK inno.N Corporation, priority 2017, dated 2022).

Target: JAK1 (Homo sapiens (Human), UniProt P23458)
Assay: Analysis of JAK1 activity inhibition ability (ADP-Glo Kinase Assay)
Assay type: biochemical
Details: JAK1 enzyme, ADP-Glo luminescence, ATP 250 uM, IRS-itide substrate, 30° C. 40 minutes; read-out: IC50
In short: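 ADP-Glo luminescence read-out of ADP production, with IC50 taken as the concentration halving JAK1 activity relative to control. Enzyme was incubated 40 min at 30 °C with compound, IRS-itide (40 ng/mL) and ATP (250 uM), concentrations as prepared in pH 7.5 Tris-HCl/MgCl2/BSA/DTT buffer.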

JAK1, sequence (P23458 whole entry): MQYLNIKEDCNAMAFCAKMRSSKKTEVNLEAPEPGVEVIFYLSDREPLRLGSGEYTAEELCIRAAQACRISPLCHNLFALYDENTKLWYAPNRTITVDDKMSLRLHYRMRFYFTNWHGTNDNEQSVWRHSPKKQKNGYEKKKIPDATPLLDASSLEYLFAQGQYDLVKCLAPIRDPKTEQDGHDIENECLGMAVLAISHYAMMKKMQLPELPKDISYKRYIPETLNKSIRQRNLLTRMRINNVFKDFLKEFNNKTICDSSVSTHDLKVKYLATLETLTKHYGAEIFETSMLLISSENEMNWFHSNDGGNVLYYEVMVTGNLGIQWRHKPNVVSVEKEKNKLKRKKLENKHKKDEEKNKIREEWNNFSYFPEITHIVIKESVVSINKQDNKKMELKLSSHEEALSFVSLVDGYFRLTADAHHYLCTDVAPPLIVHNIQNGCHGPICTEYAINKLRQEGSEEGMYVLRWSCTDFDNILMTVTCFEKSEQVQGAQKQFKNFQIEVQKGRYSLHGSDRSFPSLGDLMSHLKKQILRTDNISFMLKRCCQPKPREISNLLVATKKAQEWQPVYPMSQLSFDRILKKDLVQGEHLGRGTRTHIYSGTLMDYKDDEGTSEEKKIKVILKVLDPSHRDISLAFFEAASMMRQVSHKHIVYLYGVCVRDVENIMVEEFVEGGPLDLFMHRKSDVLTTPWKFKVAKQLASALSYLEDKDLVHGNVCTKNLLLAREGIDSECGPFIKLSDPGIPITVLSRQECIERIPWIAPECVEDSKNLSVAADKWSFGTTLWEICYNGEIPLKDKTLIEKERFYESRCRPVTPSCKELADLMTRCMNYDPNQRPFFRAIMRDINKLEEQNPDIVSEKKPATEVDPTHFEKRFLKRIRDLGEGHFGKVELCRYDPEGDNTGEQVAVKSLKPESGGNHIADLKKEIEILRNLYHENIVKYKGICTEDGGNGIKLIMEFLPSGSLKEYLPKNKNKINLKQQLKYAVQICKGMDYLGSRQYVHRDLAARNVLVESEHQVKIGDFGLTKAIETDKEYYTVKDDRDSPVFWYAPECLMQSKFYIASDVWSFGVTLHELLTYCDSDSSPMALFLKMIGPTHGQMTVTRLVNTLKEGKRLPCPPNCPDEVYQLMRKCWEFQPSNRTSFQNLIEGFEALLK

Row | IC50 [µM] | Structure (SMILES)
1 | 0.02 to 0.2 | Cn1ccc(NC(=O)Cc2ccc(-c3cc(NC(=O)C4CC4)nc4[nH]ccc34)cc2)n1 [Example 556, N-(4-(4-(2-((1-methyl-1H-pyrazol-3-yl)amino)-2-oxoethyl)phenyl)-1H-pyrrolo[2,3-b]pyridin-6-yl)cyclopropanecarboxamide]
2 | 0.02 to 0.2 | O=C(Nc1cc(-c2ccc(CC(=O)N3CCCCC3)cc2)c2cc[nH]c2n1)C1CC1 [Example 557, N-(4-(4-(2-oxo-2-(piperidin-1-yl)ethyl)phenyl)-1H-pyrrolo[2,3-b]pyridin-6-yl)cyclopropanecarboxamide]
3 | > 0.2 | O=C(Nc1cc(-c2ccc(CC(=O)N3CCNCC3)cc2)c2cc[nH]c2n1)C1CC1 [Example 558, N-(4-(4-(2-oxo-2-(piperazin-1-yl)ethyl)phenyl)-1H-pyrrolo[2,3-b]pyridin-6-yl)cyclopropanecarboxamide]
4 | 0.02 to 0.2 | O=C(Nc1cc(-c2ccc(CC(=O)N3CCS(=O)(=O)CC3)c(F)c2)c2cc[nH]c2n1)C1CC1 [Example 559, N-(4-(4-(2-(1,1-dioxidothiomorpholino)-2-oxoethyl)-3-fluorophenyl)-1H-pyrrolo[2,3-b]pyridin-6-yl)cyclopropanecarboxamide]
5 | 0.02 to 0.2 | O=C(Nc1cc(-c2ccc(CC(=O)N3CCSCC3)cc2)c2cc[nH]c2n1)C1CC1 [Example 560, N-(4-(4-(2-oxo-2-thiomorpholinoethyl)phenyl)-1H-pyrrolo[2,3-b]pyridin-6-yl)cyclopropanecarboxamide]
6 | 0.02 to 0.2 | O=C(Nc1cc(-c2ccc(CC(=O)N3CCC(F)(F)CC3)cc2)c2cc[nH]c2n1)C1CC1 [Example 561, N-(4-(4-(2-(4,4-difluoropiperidin-1-yl)-2-oxoethyl)phenyl)-1H-pyrrolo[2,3-b]pyridin-6-yl)cyclopropanecarboxamide]
7 | 0.02 to 0.2 | CCS(=O)(=O)N1CCN(C(=O)Cc2ccc(-c3cc(NC(=O)C4CC4)nc4[nH]ccc34)cc2)CC1 [Example 563, N-(4-(4-(2-(4-(ethylsulfonyl)piperazin-1-yl)-2-oxoethyl)phenyl)-1H-pyrrolo[2,3-b]pyridin-6-yl)cyclopropanecarboxamide]
8 | 0.02 to 0.2 | CCCS(=O)(=O)N1CCN(C(=O)Cc2ccc(-c3cc(NC(=O)C4CC4)nc4[nH]ccc34)cc2)CC1 [Example 564, N-(4-(4-(2-oxo-2-(4-(propylsulfonyl)piperazin-1-yl)ethyl)phenyl)-1H-pyrrolo[2,3-b]pyridin-6-yl)cyclopropanecarboxamide]
9 | 0.02 to 0.2 | CCOC(=O)N1CCN(C(=O)Cc2ccc(-c3cc(NC(=O)C4CC4)nc4[nH]ccc34)cc2)CC1 [Example 565, ethyl 4-(2-(4-(6-(cyclopropanecarboxamido)-1H-pyrrolo[2,3-b]pyridin-4-yl)phenyl)acetyl)piperazine-1-carboxylate]
10 | > 0.2 | O=C(Nc1cc(-c2ccc(CC(=O)N3CCN(S(=O)(=O)NCC(F)(F)F)CC3)cc2)c2cc[nH]c2n1)C1CC1 [Example 566, (N-(4-(4-(2-oxo-2-(4-(N-(2,2,2-trifluoroethyl)sulfamoyl)piperazin-1-yl)ethyl)phenyl)-1H-pyrrolo[2,3-b]pyridin-6-yl)cyclopropanecarboxamide)]
11 | 0.02 to 0.2 | N#CC1CCN(C(=O)Cc2ccc(-c3cc(NC(=O)C4CC4)nc4[nH]ccc34)cc2)C1 (centres unmarked) [Example 567, N-(4-(4-(2-(3-cyanopyrrolidin-1-yl)-2-oxoethyl)phenyl)-1H-pyrrolo[2,3-b]pyridin-6-yl)cyclopropanecarboxamide]
12 | 0.02 to 0.2 | N#CC1CN(C(=O)Cc2ccc(-c3cc(NC(=O)C4CC4)nc4[nH]ccc34)cc2)C1 [Example 568, N-(4-(4-(2-(3-cyanoazetidin-1-yl)-2-oxoethyl)phenyl)-1H-pyrrolo[2,3-b]pyridin-6-yl)cyclopropanecarboxamide]
13 | < 0.02 | O=C(Nc1cc(-c2ccc(CC(=O)N3CCC(F)(F)C3)cc2)c2cc[nH]c2n1)C1CC1 [Example 569, N-(4-(4-(2-(3,3-difluoropyrrolidin-1-yl)-2-oxoethyl)phenyl)-1H-pyrrolo[2,3-b]pyridin-6-yl)cyclopropanecarboxamide]
14 | 0.02 to 0.2 | O=C(Nc1cc(-c2ccc(CC(=O)N3CCC(C(F)(F)F)CC3)cc2)c2cc[nH]c2n1)C1CC1 [Example 570, N-(4-(4-(2-oxo-2-(4-(trifluoromethyl)piperidin-1-yl)ethyl)phenyl)-1H-pyrrolo[2,3-b]pyridin-6-yl)cyclopropanecarboxamide]
15 | 0.02 to 0.2 | O=C(Nc1cc(-c2ccc(C(F)(F)C(=O)N3CCS(=O)(=O)CC3)cc2)c2cc[nH]c2n1)C1CC1 [Example 571, N-(4-(4-(2-(1,1-dioxidothiomorpholino)-1,1-difluoro-2-oxoethyl)phenyl)-1H-pyrrolo[2,3-b]pyridin-6-yl)cyclopropanecarboxamide]
16 | 0.02 to 0.2 | O=C(Nc1cc(-c2ccc(C(F)(F)C(=O)N3CCOCC3)cc2)c2cc[nH]c2n1)C1CC1 [Example 572, N-(4-(4-(1,1-difluoro-2-morpholino-2-oxoethyl)phenyl)-1H-pyrrolo[2,3-b]pyridin-6-yl)cyclopropanecarboxamide]

Row | IC50 [µM] | Structure (SMILES)
17 | 0.02 to 0.2 | CN(CC#N)C(=O)Cc1ccc(-c2cc(NC(=O)C3CC3)nc3[nH]ccc23)cc1 [Example 573, N-(4-(4-(2-((cyanomethyl)(methyl)amino)-2-oxoethyl)phenyl)-1H-pyrrolo[2,3-b]pyridin-6-yl)cyclopropanecarboxamide]
18 | 0.02 to 0.2 | O=C(Nc1cc(-c2ccc(CC(=O)N3CC[S+]([O-])CC3)cc2)c2cc[nH]c2n1)C1CC1 [Example 574, N-(4-(4-(2-(1-oxidothiomorpholino)-2-oxoethyl)phenyl)-1H-pyrrolo[2,3-b]pyridin-6-yl)cyclopropanecarboxamide]
19 | 0.02 to 0.2 | N#CC1CCN(C(=O)C(F)(F)c2ccc(-c3cc(NC(=O)C4CC4)nc4[nH]ccc34)cc2)CC1 [Example 575, N-(4-(4-(2-(4-cyanopiperidin-1-yl)-1,1-difluoro-2-oxoethyl)phenyl)-1H-pyrrolo[2,3-b]pyridin-6-yl)cyclopropanecarboxamide]
20 | 0.02 to 0.2 | N#CC1COCCN1C(=O)Cc1ccc(-c2cc(NC(=O)C3CC3)nc3[nH]ccc23)cc1 (centres unmarked) [Example 576, N-(4-(4-(2-(3-cyanomorpholino)-2-oxoethyl)phenyl)-1H-pyrrolo[2,3-b]pyridin-6-yl)cyclopropanecarboxamide]
21 | 0.02 to 0.2 | O=C(Nc1cc(-c2ccc(C3(C(=O)N4CCS(=O)(=O)CC4)CC3)cc2)c2cc[nH]c2n1)C1CC1 [Example 577, N-(4-(4-(1-(1,1-dioxidothiomorpholine-4-carbonyl)cyclopropyl)phenyl)-1H-pyrrolo[2,3-b]pyridin-6-yl)cyclopropanecarboxamide]
22 | > 0.2 | O=C(Nc1cc(-c2ccc(CNC(=O)N3CCOCC3)cc2)c2cc[nH]c2n1)C1CC1 [Example 579, N-(4-(6-(cyclopropanecarboxamido)-1H-pyrrolo[2,3-b]pyridin-4-yl)benzyl)morpholine-4-carboxamide]
23 | 0.02 to 0.2 | O=C(Nc1cc(-c2ccc(CNC(=O)N3CCS(=O)(=O)CC3)cc2)c2cc[nH]c2n1)C1CC1 [Example 580, N-(4-(6-(cyclopropanecarboxamido)-1H-pyrrolo[2,3-b]pyridin-4-yl)benzyl)thiomorpholine-4-carboxamide 1,1-dioxide]
24 | 0.02 to 0.2 | O=C(NCc1ccc(-c2cc(NC(=O)C3CC3)nc3[nH]ccc23)cc1)NCC(F)(F)F [Example 581, N-(4-(4-((3-(2,2,2-trifluoroethyl)ureido)methyl)phenyl)-1H-pyrrolo[2,3-b]pyridin-6-yl)cyclopropanecarboxamide]
25 | < 0.02 | O=C(Nc1cc(-c2ccc(CNS(=O)(=O)c3ccc(F)c(F)c3)cc2)c2cc[nH]c2n1)C1CC1 [Example 582, N-(4-(4-(((3,4-difluorophenyl)sulfonamido)methyl)phenyl)-1H-pyrrolo[2,3-b]pyridin-6-yl)cyclopropanecarboxamide]
26 | 0.02 to 0.2 | CCCS(=O)(=O)NCc1ccc(-c2cc(NC(=O)C3CC3)nc3[nH]ccc23)cc1 [Example 583, N-(4-(4-(propylsulfonamidomethyl)phenyl)-1H-pyrrolo[2,3-b]pyridin-6-yl)cyclopropanecarboxamide]
27 | < 0.02 | O=C(Nc1cc(-c2ccc(CN3CCS(=O)(=O)CC3)cc2)c2cc[nH]c2n1)C1CC1 [Example 584, N-(4-(4-((1,1-dioxidothiomorpholino)methyl)phenyl)-1H-pyrrolo[2,3-b]pyridin-6-yl)cyclopropanecarboxamide]
28 | < 0.02 | O=C1CCN(Cc2ccc(-c3cc(NC(=O)C4CC4)nc4[nH]ccc34)cc2)CC1 [Example 585, N-(4-(4-((4-oxopiperidin-1-yl)methyl)phenyl)-1H-pyrrolo[2,3-b]pyridin-6-yl)cyclopropanecarboxamide]
29 | 0.02 to 0.2 | N#CC1CN(Cc2ccc(-c3cc(NC(=O)C4CC4)nc4[nH]ccc34)cc2)C1 [Example 586, N-(4-(4-((3-cyanoazetidin-1-yl)methyl)phenyl)-1H-pyrrolo[2,3-b]pyridin-6-yl)cyclopropanecarboxamide]
30 | < 0.02 | CS(=O)(=O)N1CCN(Cc2ccc(-c3cc(NC(=O)C4CC4)nc4[nH]ccc34)cc2)CC1 [Example 587, N-(4-(4-((4-(methylsulfonyl)piperazin-1-yl)methyl)phenyl)-1H-pyrrolo[2,3-b]pyridin-6-yl)cyclopropanecarboxamide]
31 | < 0.02 | CC1CC1C(=O)Nc1cc(-c2ccc(CN3CCS(=O)(=O)CC3)cc2)c2cc[nH]c2n1 (centres unmarked) [Example 588, N-(4-(4-((1,1-dioxidothiomorpholino)methyl)phenyl)-1H-pyrrolo[2,3-b]pyridin-6-yl)-2-methylcyclopropane-1-carboxamide]

Row | Structure (SMILES) | IC50 [µM]
32 | O=C(Nc1cc(C2=CCN(CC(=O)N3CCS(=O)(=O)CC3)CC2)c2cc[nH]c2n1)C1CC1 [Example 578, N-(4-(1-(2-(1,1-dioxidothiomorpholino)-2-oxoethyl)-1,2,3,6-tetrahydropyridin-4-yl)-1H-pyrrolo[2,3-b]pyridin-6-yl)cyclopropanecarboxamide] | 0.02 to 0.2
